Patent US4639468A, “Derivatives of glycinamide, their preparation and their use” (priority 1979, dated 1987)
Like-named read-outs stand apart in the source and are kept apart here.

Assays:
[1] = tested on: mice; test: in vivo; details: oral, mice; Table II
[2] = tested on: convulsions induced by bicuculline; test: in vivo; details: for bicuculline (score: sum of animals protected by dosages of 10 and 100 mgr/kg): oral, 5 mice each, 3 hours before bicuculline 0.6 mgr/kg i.v., tonic convulsions; for ED50: Mus musculus, iv, 3 h, read-out: DE50
Experimental: (§1) The anticonvulsive effect was examined for tonic convulsions induced by bicuculline. The compounds of the invention were administrated orally at dosages of 10 and 100 mgr/kg, each to 5 mice, 3 hours before intravenous injection of bicuculline at the dosage of 0.6 mgr/kg. The number of mice protected against tonic convulsions and the number of dead mice were noted.
(§2) Amongst the substances according to the invention, 2-n-pentylaminoacetamideand its hydrochloride were more particularly studied. […] The hydrochloride was also administered intravenously. […] Table III also gives the therapeutical index (LD50/ED50).

[3] = in vivo; details: mouse, in vivo, po, read-out: DL50 (the source's name)
[4] = tested on: decarboxylase glutamate (GAD); test: activity of decarboxylase glutamate (GAD) in homogenizates of rat brain; type: biochemical; details: 10^-4 M
Experimental: The substances of the invention have the property of inhibiting convulsions induced by bicculline in mouse. […] As a matter of fact, bucuculline is a specific antoganist of GABA. Besides, the effect of the products on the activity of the GABA synthesis enzyme, decarboxylase glutamate (GAD), was studied. The activity of the GAD was determined in homogenizates of rat brain according to the method described by L. Parker (Methods in Enzymology, Ed. S. Fleischer, 1974, Vol. XXXII, part V., p. 779). […] In general, the products of the invention […] the activity of the […] (GABA-T), enzyme of GABA catabolism, which results in an increase of the GABA levels at the level of GABA-ergic neurons.

[5] = tested on: mortality caused by KCN; test: protection of mice against mortality caused by KCN; type: in vivo, mouse
[6] = tested on: platelet agglutination; test: inhibition of platelet agglutination in human plasma (turbidimetric method of Born and Cross, Trombofax); type: cell-based; details: human plasma rich in platelets, preincubated 3 minutes before Trombofax
Experimental: The measure of the inhibition of platelet agglutination is made according to the turbidimetric method of G. V. R. Born and M. J. Cross (J. Physiol. 168, 178, […]). The plasma rich in platelets is preincubated for 3 minutes before introduction of the inductor agent, Trombofax. The inhibion of the maximum amplitude of agglutination is measured by means of Upchurch agglutometer. In this test, compounds 1, 11, 14 and 18 have shown as being active.

[7] = in vivo; details: mouse, in vivo, po
Experimental: as §1, §2

[8] = tested on: convulsions induced by strychnine; test: convulsions induced by strychnine; details: in vivo

| Structure (SMILES) | bicuculline (score: sum of animals protected by dosages of 10 and 100 mgr/kg) [2] | LD50 ([3]; mice, Table II) [mg/kg] | further results |
| --- | --- | --- | --- |
| CCCCCCNCC(N)=O [Compound 2, 2-n-hexylaminoacetamide] | 4 |  | DL50 [1]: 780 mg/kg |
| NC(=O)CNCCCCCCO [Compound 4] | 4 | > 3000 |  |
| NC(=O)CN(CCCCCCO)CC(N)=O [Compound 5] | 2 | > 3000 |  |
| COC(=O)CCCCCN(CC(N)=O)CC(N)=O [Compound 6, Methyl 6-(dicarboxamidomethyl)aminohexanoate] | 6 | > 3000 |  |
| NC(=O)CNCCCCO [Compound 7] | 2 |  |  |
| COC(=O)CCCCCNCC(N)=O [Compound 8] | 1 | > 3000 | effect on the activity of GAD [4]: particularly remarkable |
| CCCCCCCNCC(N)=O [Compound 9, 2-n-Heptylaminoacetamide] | 5 | 1420 | protection against mortality caused by KCN [5]: protect mice against mortality caused by KCN |
| CCCCCCCCCCCCCCCCCCNCC(N)=O [Compound 10, 2-n-octadecylaminoacetamide] | 1 | > 3000 |  |
| CCCCCCCCCNCC(N)=O [Compound 11] | 2 | 1950 | inhibition of platelet agglutination [6]: active |
| CCCCCCNCC(N)=O [Compound 12, 2-n-hexylaminoacetamide] | 5 |  | DL50 [1]: 2800 mg/kg |
| CCCCCCCCCCCCNCC(N)=O [Compound 13, 2-n-docecylaminoacetamide] | 2 | > 3000 |  |
| CCCCCCCCCCNCC(N)=O [Compound 14, 2-n-decylaminoacetamide] | 6 | 2600 | inhibition of platelet agglutination [6]: active |
| CCOC(=O)CCCCCCCNCC(N)=O [Compound 16] | 5 | > 1000 |  |
| CCCCCCCCC=CCCCCCCCCNCC(N)=O [Compound 17, 2-n-octadecen-9-ylaminoacetamide] | 2 | > 3000 |  |
| CCCCCCCC(C)NCC(N)=O (stereo not drawn) [Compound 18] | 2 | > 1000 | inhibition of platelet agglutination [6]: active |
| CCCCCNCC(N)=O [Compound 20] | 1 |  | DL50 [1]: > 1000 mg/kg |
| COC(=O)CCCCCCCNC(C(N)=O)C(N)=O [Compound 23, Methyl 8-(dicarboxamidomethyl)aminooctanoate] | 7 |  | DL50 [1]: > 1000 mg/kg |
| CCCCCCN(CC(N)=O)C(=O)c1ccccc1 [Compound 25] | 5 | 3660 |  |
| CCCCCNCC(N)=O [Compound 26] | 3 |  | DL50 [1]: 1950 mg/kg |
| CCCCCCNCC(N)=O [Compound 27] | 4 |  | DL50 [1]: 860 mg/kg |
| CCCCCCN(CC)CC(N)=O [Compound 28] | 5 | 435 |  |
| CCCCCCN(C)CC(N)=O [Compound 30, 2-(N-n-hexyl-N-methylamino)acetamide] | 4 | 570 |  |
| CCCCCCNCC(N)=O [Compound 31] | 6 |  | DL50 [1]: 1650 mg/kg |
| CCCCCNCC(N)=O [Compound 34] | 5 |  | DL50 [1]: > 3000 mg/kg |

| Structure (SMILES) | bicuculline (score: sum of animals protected by dosages of 10 and 100 mgr/kg) [2] | LD50 ([3]; mice, Table II) [mg/kg] | further results |
| --- | --- | --- | --- |
| CCCCCNCC(N)=O [Compound 35] | 3 |  | DL50 [1]: > 3000 mg/kg |
| NC(=O)CNCCc1ccccc1 [Compound 36, 2-(2-phenylethyl)aminocacetamide] | 7 |  |  |
| CCCCCCNCC(=O)NCCCCCC [Compound 37, N-n-hexyl-2-(n-hexylamino)acetamide] | 3 |  |  |
| CCCCCCNCC(=O)NC [Compound 38] | 3 |  |  |
| C=CCCCCCNCC(N)=O [Compound 40] | 4 |  |  |
| CCCCCNC(C)C(N)=O (stereo not drawn) [Compound 41] | 4 |  |  |
| C#CC(C)(C)NCC(N)=O [Compound 42, 2-(1,1-dimethylpropyn-2-yl)aminoacetamide] | 6 |  |  |
| CCCCCCN(CC(N)=O)C(=O)C(C)(C)C [Compound 45] | 3 |  |  |
| CCCCCNC(C(N)=O)c1ccccc1 (stereo not drawn) [Compound 46] | 5 |  |  |
| CCCCCCN(CC(N)=O)C(=O)OCC [Compound 47, Ethyl N-n-hexyl-N-carboxamidomethylcarbamate] | 8 |  |  |
| CCCCCNC(CC)C(N)=O (stereo not drawn) [Compound 48, 2-(n-pentylamino)-butyramide] | 6 |  |  |
| NC(=O)CNCCCc1ccccc1 [Compound 49, 2-(3-phenylpropyl)aminoacetamide] | 7 |  |  |
| C=CCCCCCCNCC(N)=O [Compound 50] | 6 |  |  |
| NC(=O)CNCCCCCCCC(=O)O [Compound 51, 8-carboxamidomethylaminooctanoic acid] | 6 |  |  |
| NC(=O)CNCCCCc1ccccc1 [Compound 52, 2-(4-phenylbutyl)aminoacetamide] | 7 |  |  |
| CCCCCCNCC(=O)Nc1cccc(Cl)c1 [Compound 53] | 4 |  |  |
| CCCCCCNCC(=O)N(C)C [Compound 54] | 4 |  |  |
| CCCCNC(=O)C(C(C)C)N(CCCCOc1ccccc1)C(C)=O (stereo not drawn) [Compound 55, N-n-butyl-2-[N-acetyl-N-(4-phenoxybutyl)]aminoisovaleramide] | 6 |  |  |
| NC(=O)CNCCC(c1ccccc1)c1ccccc1 [Compound 56] | 4 |  |  |
| NC(=O)CNCCOc1ccccc1 [Compound 57] | 5 |  |  |
| O=C1NC(=O)C(c2ccccc2)(c2ccccc2)N1 [Na Diphenylhydantoin, reference compound] |  |  | ED50 [2]: 2.63 mg/kg |
| CCC1(c2ccccc2)C(=O)NC(=O)NC1=O [Na Phenobarbital, reference compound] |  |  | LD50 ([3]; Table III): 185 mg/kg; selectivity ratio [7]: 88; ED50 [2]: 2.11 mg/kg |
| CCCC(CCC)C(=O)O [Na Valproate, reference compound] |  |  | LD50 ([3]; Table III): 1250 mg/kg; activity against convulsions induced by strychnine [8]: inactive; selectivity ratio [7]: 14; ED50 [2]: 89.1 mg/kg |
